In patent US12187719B2, “Proteolysis targeting chimera (PROTACS) as degraders of SMARCA2 and /or SMARCA4” (Boehringer Ingelheim International GmbH, priority 2018, dated 2025):

What was measured:
SMARCA4 = molecular target: T1, SMARCA4 (Homo sapiens, UniProt P51532); assay: Protein degradation assay in A549 cells, SMARCA4 levels by WES capillary electrophoresis; format: cell-based; conditions: A549 (NSCLC) cells with SMARCA4 mutation corrected to wild type, 18 h incubation; for DC50: concentration at which half maximal degradation is achieved, normalised to GAPDH; for Dmax: maximal amount of degraded protein relative to initial levels
T1 construct: endogenous in cells; host or cells: A549 (NSCLC) cells with SMARCA4 mutation corrected to wild type
Procedure: (§1) For the protein degradation assay, A549 (NSCLC) cells are used in which the inactivating SMARCA4 mutation has been corrected to wild type, such that the cells express both SMARCA2 and SMARCA4. 35000 cells in F12K Medium +10% FBS (100 μL/well) are seeded in a Greiner 96 well F-bottom plate and incubated at 37° C. overnight. Compounds are added from DMSO stock solution using ECHO Access™ workstation or HP D300 Digital Dispenser and cells are incubated at 37° C. for 18 h. Medium is removed, cells are washed with PBS, PBS is removed and 30 μL cold Lysis Buffer (1% Triton, 350 mM KCl, 10 mM Tris, Halt Phosphatase-Protease Inhibitors, 10 mM DTT, Benzonase 0.5 μL/mL) is added to each well. Cells are lysed for 20 min at 4° C. on a bioshake at 800 rpm before insoluble debris is pelleted by centrifugation for 20 min at 4000 rpm at 4° C. The supernatant is transferred to a fresh PCR plate. SMARCA2 levels are determined on a WES capillary electrophoresis instrument (Proteinsimple) using rabbit anti-SMARCA2 antibody (1:25, Sigma #HPA029981), SMARCA4 antibody (CellSignaling #49360, 1:25), PBRM1 antibody (Bethyl #A301-591A-M, 1:40) and anti-GAPDH antibody (1:100, Abcam #ab9485) for normalization.
The Dmax represents the efficiency of degradation and gives the maximal amount of degraded protein relative to initial levels.

SMARCA2 = molecular target: T2, SMARCA2 (Homo sapiens, UniProt P51531); assay: Protein degradation assay in A549 cells, SMARCA2 levels by WES capillary electrophoresis; format: cell-based; conditions: A549 (NSCLC) cells with SMARCA4 mutation corrected to wild type, 18 h incubation; for DC50: concentration at which half maximal degradation is achieved, normalised to GAPDH; for Dmax: maximal amount of degraded protein relative to initial levels
T2 construct: such that the cells express both SMARCA2 and SMARCA4; endogenous in cells; host or cells: A549 (NSCLC) cells with SMARCA4 mutation corrected to wild type
Procedure: as §1
The compounds 1-1 to 1-18 according to the invention have been tested in the above described assay. The majority of the compounds show degradation of SMARCA2 and SMARCA4 protein in A549 cells with DC50 in the range of 10-1000 nM (i.e. compound concentration at which half maximal degradation is achieved). The Dmax represents the efficiency of degradation and gives the maximal amount of degraded protein relative to initial levels. The majority of the compounds reach degradation levels >80%.

T1 sequence (P51532 whole entry): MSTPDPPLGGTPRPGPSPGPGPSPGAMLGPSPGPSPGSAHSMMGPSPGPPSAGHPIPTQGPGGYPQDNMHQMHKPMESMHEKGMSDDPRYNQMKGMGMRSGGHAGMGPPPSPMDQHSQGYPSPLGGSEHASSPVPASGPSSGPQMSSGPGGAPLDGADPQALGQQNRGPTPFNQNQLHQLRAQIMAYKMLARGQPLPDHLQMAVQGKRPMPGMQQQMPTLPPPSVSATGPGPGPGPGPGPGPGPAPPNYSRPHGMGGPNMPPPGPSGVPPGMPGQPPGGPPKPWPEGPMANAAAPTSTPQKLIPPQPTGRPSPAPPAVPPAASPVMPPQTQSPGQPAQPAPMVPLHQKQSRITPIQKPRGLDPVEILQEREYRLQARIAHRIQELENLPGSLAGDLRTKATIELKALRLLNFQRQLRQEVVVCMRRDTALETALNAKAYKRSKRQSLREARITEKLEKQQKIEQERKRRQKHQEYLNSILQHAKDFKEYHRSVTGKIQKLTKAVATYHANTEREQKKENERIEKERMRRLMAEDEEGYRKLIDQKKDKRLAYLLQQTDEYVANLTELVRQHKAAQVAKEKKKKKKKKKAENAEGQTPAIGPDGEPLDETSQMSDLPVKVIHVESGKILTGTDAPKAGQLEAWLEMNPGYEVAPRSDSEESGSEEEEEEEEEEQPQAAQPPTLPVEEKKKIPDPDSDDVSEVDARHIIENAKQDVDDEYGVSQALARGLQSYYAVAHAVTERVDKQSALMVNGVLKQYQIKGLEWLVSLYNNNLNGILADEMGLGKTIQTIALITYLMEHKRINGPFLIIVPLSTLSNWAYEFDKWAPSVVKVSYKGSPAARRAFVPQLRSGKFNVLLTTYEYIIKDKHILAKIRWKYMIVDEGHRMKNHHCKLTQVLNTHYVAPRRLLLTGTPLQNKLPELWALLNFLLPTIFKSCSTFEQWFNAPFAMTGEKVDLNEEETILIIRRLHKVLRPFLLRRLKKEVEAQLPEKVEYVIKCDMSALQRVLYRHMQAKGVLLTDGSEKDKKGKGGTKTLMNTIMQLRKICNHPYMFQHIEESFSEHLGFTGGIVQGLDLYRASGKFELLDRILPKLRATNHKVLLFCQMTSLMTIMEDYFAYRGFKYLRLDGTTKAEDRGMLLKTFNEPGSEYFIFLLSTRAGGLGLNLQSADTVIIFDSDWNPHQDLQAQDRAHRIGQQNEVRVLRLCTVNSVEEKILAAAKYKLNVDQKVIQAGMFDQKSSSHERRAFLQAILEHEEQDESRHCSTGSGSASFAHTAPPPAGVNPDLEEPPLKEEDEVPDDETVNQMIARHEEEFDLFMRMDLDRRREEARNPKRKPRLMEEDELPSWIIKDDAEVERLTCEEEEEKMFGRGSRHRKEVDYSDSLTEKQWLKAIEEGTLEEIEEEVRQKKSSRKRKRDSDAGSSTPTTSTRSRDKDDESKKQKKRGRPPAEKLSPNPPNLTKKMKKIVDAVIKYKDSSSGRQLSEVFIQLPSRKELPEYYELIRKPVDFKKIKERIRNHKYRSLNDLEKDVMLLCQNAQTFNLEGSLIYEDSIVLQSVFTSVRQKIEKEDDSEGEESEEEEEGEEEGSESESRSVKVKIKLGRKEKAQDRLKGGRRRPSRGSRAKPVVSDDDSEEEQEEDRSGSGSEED
T2 sequence (P51531 whole entry): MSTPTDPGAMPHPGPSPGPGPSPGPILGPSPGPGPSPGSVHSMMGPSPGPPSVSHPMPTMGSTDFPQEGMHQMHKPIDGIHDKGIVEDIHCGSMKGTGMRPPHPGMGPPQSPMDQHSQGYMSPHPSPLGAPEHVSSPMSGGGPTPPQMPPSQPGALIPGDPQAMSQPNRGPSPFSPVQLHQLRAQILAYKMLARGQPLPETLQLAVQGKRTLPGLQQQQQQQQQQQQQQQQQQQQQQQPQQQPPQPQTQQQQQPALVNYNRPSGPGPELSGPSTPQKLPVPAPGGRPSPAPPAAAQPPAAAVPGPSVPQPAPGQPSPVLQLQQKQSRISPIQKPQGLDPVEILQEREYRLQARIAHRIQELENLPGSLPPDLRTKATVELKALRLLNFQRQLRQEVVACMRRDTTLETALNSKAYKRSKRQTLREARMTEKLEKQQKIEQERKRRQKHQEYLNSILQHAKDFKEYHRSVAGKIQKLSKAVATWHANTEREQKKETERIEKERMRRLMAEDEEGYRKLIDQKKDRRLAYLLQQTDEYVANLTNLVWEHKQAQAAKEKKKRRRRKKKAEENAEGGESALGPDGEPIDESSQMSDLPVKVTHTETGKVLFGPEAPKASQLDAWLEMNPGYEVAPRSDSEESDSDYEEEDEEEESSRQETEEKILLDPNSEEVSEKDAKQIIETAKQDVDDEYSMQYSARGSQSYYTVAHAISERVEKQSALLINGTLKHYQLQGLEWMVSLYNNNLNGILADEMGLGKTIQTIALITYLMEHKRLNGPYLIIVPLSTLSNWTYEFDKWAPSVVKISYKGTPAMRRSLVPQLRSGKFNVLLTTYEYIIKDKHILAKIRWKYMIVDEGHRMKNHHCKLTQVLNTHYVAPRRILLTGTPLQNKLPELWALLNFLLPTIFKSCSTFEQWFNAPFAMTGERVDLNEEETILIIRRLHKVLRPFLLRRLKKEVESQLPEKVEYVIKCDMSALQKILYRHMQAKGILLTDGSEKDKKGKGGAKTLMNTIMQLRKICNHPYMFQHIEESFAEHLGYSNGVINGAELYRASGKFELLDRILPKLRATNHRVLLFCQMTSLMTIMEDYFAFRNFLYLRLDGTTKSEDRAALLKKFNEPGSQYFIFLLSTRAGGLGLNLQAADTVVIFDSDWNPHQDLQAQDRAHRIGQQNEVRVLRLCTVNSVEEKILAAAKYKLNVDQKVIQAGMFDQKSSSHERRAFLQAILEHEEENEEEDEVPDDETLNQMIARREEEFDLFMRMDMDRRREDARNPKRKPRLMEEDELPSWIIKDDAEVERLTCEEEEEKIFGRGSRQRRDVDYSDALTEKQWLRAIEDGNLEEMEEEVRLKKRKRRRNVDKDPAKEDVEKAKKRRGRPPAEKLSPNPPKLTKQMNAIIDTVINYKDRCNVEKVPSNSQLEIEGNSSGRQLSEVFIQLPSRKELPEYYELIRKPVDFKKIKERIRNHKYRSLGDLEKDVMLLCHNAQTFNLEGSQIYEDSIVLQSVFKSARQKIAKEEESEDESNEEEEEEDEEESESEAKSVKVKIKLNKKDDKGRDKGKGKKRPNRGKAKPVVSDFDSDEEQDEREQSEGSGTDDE

Row | Structure (SMILES) | DC50 (SMARCA4) [µM] | Dmax (SMARCA4) [%] | DC50 (SMARCA2) [µM] | Dmax (SMARCA2) [%]
1 | Cc1ncsc1-c1ccc(CNC(=O)[C@@H]2C[C@@H](O)CN2C(=O)[C@@H](NC(=O)C2(F)CC2)C(C)(C)C)c(OCCCCCCCN2CCN(c3cc(-c4ccccc4O)nnc3N)CC2)c1 [Compound I-1] | 1.24 | 70 | 0.45 | 45
2 | Cc1ncsc1-c1ccc(CNC(=O)[C@@H]2C[C@@H](O)CN2C(=O)[C@@H](NC(=O)C2(F)CC2)C(C)(C)C)c(OCCc2ccc(CN3CCN(c4cc(-c5ccccc5O)nnc4N)CC3)cc2)c1 [Compound I-2] | 0.117 | 93 | 0.067 | 91
3 | Cc1ncsc1-c1ccc(CNC(=O)[C@@H]2C[C@@H](O)CN2C(=O)[C@@H](NC(=O)C2(F)CC2)C(C)(C)C)c(OCCCOCCN2CCN(c3cc(-c4ccccc4O)nnc3N)CC2)c1 [Compound I-3] | 2.04 | 100 |  | 
4 | Cc1ncsc1-c1ccc(CNC(=O)[C@@H]2C[C@@H](O)CN2C(=O)[C@@H](NC(=O)C2(F)CC2)C(C)(C)C)c(OCCOCCOCCN2CCN(c3cc(-c4ccccc4O)nnc3N)CC2)c1 [Compound I-5] |  | 84 | 2.54 | 89
5 | Cc1ncsc1-c1ccc(CNC(=O)[C@@H]2C[C@@H](O)CN2C(=O)[C@@H](NC(=O)C2(F)CC2)C(C)(C)C)c(OCCOc2ccc(CN3CCN(c4cc(-c5ccccc5O)nnc4N)CC3)cc2)c1 [Compound I-7] | 0.016 | 97 | 0.012 | 98
6 | Cc1ncsc1-c1ccc(CNC(=O)[C@@H]2C[C@@H](O)CN2C(=O)[C@@H](NC(=O)C2(F)CC2)C(C)(C)C)c(OCCCOc2ccc(CN3CCN(c4cc(-c5ccccc5O)nnc4N)CC3)cc2)c1 [Compound I-11] | 0.016 | 100 | 0.026 | 99
7 | Cc1ncsc1-c1ccc(CNC(=O)[C@@H]2C[C@@H](O)CN2C(=O)[C@@H](NC(=O)C2(F)CC2)C(C)(C)C)c(OCCCc2ccc(CN3CCN(c4cc(-c5ccccc5O)nnc4N)CC3)cc2)c1 [Compound I-14] | 0.025 | 92 | 0.058 | 90

The remaining compounds from weak to strong by DC50 (SMARCA2), led by results:

Row | DC50 (SMARCA4) [µM] | Dmax (SMARCA4) [%] | DC50 (SMARCA2) [µM] | Dmax (SMARCA2) [%] | Structure (SMILES)
8 | 0.735 | 87 | 1 | 70 | Cc1ncsc1-c1ccc(CNC(=O)[C@@H]2C[C@@H](O)CN2C(=O)[C@@H](NC(=O)C2(F)CC2)C(C)(C)C)c(OCCCCOCCN2CCN(c3cc(-c4ccccc4O)nnc3N)CC2)c1 [Compound I-4]
9 |  |  | ~1 | 40 | Cc1ncsc1-c1ccc(CNC(=O)[C@@H]2C[C@@H](O)CN2C(=O)[C@@H](NC(=O)C2(F)CC2)C(C)(C)C)c(OCc2ccc(CCN3CCN(c4cc(-c5ccccc5O)nnc4N)CC3)cc2)c1 [Compound I-12]
10 | 0.188 | 81 | 0.525 | 98 | Cc1ncsc1-c1ccc(CNC(=O)[C@@H]2C[C@@H](O)CN2C(=O)[C@@H](NC(=O)C2(F)CC2)C(C)(C)C)c(OCCc2ccc(C(=O)N3CCN(c4cc(-c5ccccc5O)nnc4N)CC3)cc2)c1 [Compound I-18]
11 | 0.17 | 83 | 0.236 | 85 | Cc1ncsc1-c1ccc(CNC(=O)[C@@H]2C[C@@H](O)CN2C(=O)[C@@H](NC(=O)C2(F)CC2)C(C)(C)C)c(OCCCCOc2ccc(CN3CCN(c4cc(-c5ccccc5O)nnc4N)CC3)cc2)c1 [Compound I-9]
12 | 0.634 | 97 | 0.189 | 88 | Cc1ncsc1-c1ccc(CNC(=O)[C@@H]2C[C@@H](O)CN2C(=O)[C@@H](NC(=O)C2(F)CC2)C(C)(C)C)c(OCCc2cccc(CN3CCN(c4cc(-c5ccccc5O)nnc4N)CC3)c2)c1 [Compound I-13]
13 | 0.219 | 89 | 0.172 | 83 | Cc1ncsc1-c1ccc(CNC(=O)[C@@H]2C[C@@H](O)CN2C(=O)[C@@H](NC(=O)C2(F)CC2)C(C)(C)C)c(OCCCCCCCOCCN2CCN(c3cc(-c4ccccc4O)nnc3N)CC2)c1 [Compound I-6]
14 | 0.168 | 59 | 0.056 | 88 | Cc1ncsc1-c1ccc(CNC(=O)[C@@H]2C[C@@H](O)CN2C(=O)[C@@H](NC(=O)C2(F)CC2)C(C)(C)C)c(OCc2ccc(CN3CCN(c4cc(-c5ccccc5O)nnc4N)CC3)cc2)c1 [Compound I-8]
15 | 0.026 | 99 | 0.041 | 99 | Cc1ncsc1-c1ccc(CNC(=O)[C@@H]2C[C@@H](O)CN2C(=O)[C@@H](NC(=O)C2(F)CC2)C(C)(C)C)c(OCCc2ccc(OCCN3CCN(c4cc(-c5ccccc5O)nnc4N)CC3)cc2)c1 [Compound I-10]
